According to ChEMBL document CHEMBL2169792, “Synthesis of new 4-thiazolidinone-, pyrazoline-, and isatin-based conjugates with promising antitumor activity” (J Med Chem, 2012):
Active and inactive are the calls of the source. No cut-off for these calls is given here.

Assays:
CCRF-CEM = test: Cytotoxicity against human CCRF-CEM cells assessed as cell growth at 10 uM after 48 hrs by SRB assay; format: functional; conditions: read-out: Activity
[1] = Cytotoxicity against human colon cancer cells after 48 hrs by SRB assay; format: functional; conditions: Cancer cell lines
[2] = Cytotoxicity against human leukemia cells after 48 hrs by SRB assay; format: functional; conditions: Leukemia cell; for CC50: read-out: LC50 (the source's name)
[3] = Cytotoxicity against human breast cancer cells after 48 hrs by SRB assay; format: functional; conditions: Cancer cell lines
[4] = Cytotoxicity against human melanoma cells after 48 hrs by SRB assay; format: functional; conditions: Melanoma cell; for CC50: read-out: LC50 (the source's name)
[5] = Cytotoxicity against human renal cancer cells after 48 hrs by SRB assay; format: functional; conditions: Cancer cell lines
[6] = Cytotoxicity against human non-small cell lung cancer cells after 48 hrs by SRB assay; format: functional; conditions: Cancer cell lines; for CC50: read-out: LC50 (the source's name)
[7] = Cytotoxicity against human ovarian cancer cells after 48 hrs by SRB assay; format: functional; conditions: Cancer cell lines
[8] = Cytotoxicity against human CNS cancer cells after 48 hrs by SRB assay; format: functional; conditions: Cancer cell lines
[9] = Cytotoxicity against human prostate cancer cells after 48 hrs by SRB assay; format: functional; conditions: Cancer cell lines
SK-MEL-5 = test: Cytotoxicity against human SK-MEL-5 cells assessed as cell growth at 10 uM after 48 hrs by SRB assay; format: functional; conditions: SK-MEL-5, 48 h, read-out: Activity
[10] = Toxicity in mouse; format: organism-based; conditions: in vivo
Mus musculus = test: Antitumor activity in ip dosed athymic nude mouse hollow fiber model assessed as reduction of viable cell mass; format: functional, organism-based
U-251 = test: Cytotoxicity against human U251 cells assessed as cell growth at 10 uM after 48 hrs by SRB assay; format: functional; conditions: U-251, 48 h, read-out: Activity

Row | SMILES | GI50 [1] [nM] | LC50 (concentration lethal to 50% of cells) [1] [µM] | TGI [1] [µM] | GI50 [2] [µM] | TGI [2] [µM] | CC50 [2] [µM] | GI50 [3] [nM] | LC50 (concentration causing 50% net cell kill) [3] [µM] | TGI [3] [µM] | GI50 [4] [nM] | TGI [4] [µM] | CC50 [4] [µM] | GI50 [5] [nM] | LC50 [5] [µM] | TGI [5] [µM] | GI50 [6] [nM] | TGI [6] [µM] | CC50 [6] [µM] | GI50 [7] [nM] | LC50 (concentration causing 50% net cell kill) [7] [µM] | other results
1 | COc1ccc(-c2cc(-c3ccc(Cl)cc3)n(C3C(=O)Nc4ccccc43)n2)cc1 (configuration not stated) | – | – | – | – | – | – | – | – | – | – | – | – | – | – | – | – | – | – | – | – | growth at 10 µM (CCRF-CEM): 75.6%
2 | COc1ccc(-c2cc(-c3ccc(Cl)cc3)n(C3C(=O)Nc4ccc(Cl)cc43)n2)cc1 (configuration not stated) | 6150 | 69.4 | 28.6 | 27.9 | 79.2 | 100 | 6290 | 47.6 | 17.8 | 9400 | 46.7 | 76.4 | 3750 | 42.4 | 13.2 | 4370 | 23.2 | 59.8 | 3680 | 52.3 | growth at 10 µM (CCRF-CEM): 50.8%; TGI [7]: 14.7 µM; GI50 [8]: 3940 nM; LC50 (concentration giving 50% net cell kill) [8]: 42.2 µM; TGI [8]: 14.4 µM; GI50 [9]: 6490 nM; LC50 [9]: 62.4 µM; TGI [9]: 20.3 µM
3 | O=C(O)CN1C(=O)C(n2nc(-c3ccccc3)cc2-c2ccc(Cl)cc2)c2ccccc21 (configuration not stated) | – | – | – | – | – | – | – | – | – | – | – | – | – | – | – | – | – | – | – | – | growth at 10 µM (CCRF-CEM): 97.7%
4 | COc1ccc(-c2cc(-c3ccc(Cl)cc3)n(C3C(=O)Nc4ccc(Br)cc43)n2)cc1 (configuration not stated) | 7200 | 78.8 | 36.3 | 12.3 | 67 | 100 | 8100 | 65.8 | 24.6 | 13200 | 49.3 | 81.1 | 9200 | 62.1 | 32.3 | 7530 | 30 | 58.6 | 9750 | 64.8 | growth at 10 µM (CCRF-CEM): 58.6%; TGI [7]: 28.7 µM; GI50 [8]: 5480 nM; LC50 (concentration giving 50% net cell kill) [8]: 46.5 µM; TGI [8]: 16.7 µM; GI50 [9]: 7650 nM; LC50 [9]: 61.2 µM; TGI [9]: 22.1 µM
5 | O=C(O)CN1C(=O)C(n2nc(-c3ccc4ccccc4c3)cc2-c2ccc(Cl)cc2)c2ccccc21 (configuration not stated) | – | – | – | – | – | – | – | – | – | – | – | – | – | – | – | – | – | – | – | – | growth at 10 µM (CCRF-CEM): 103%
6 | COc1ccc(C2=NN(C3=NC(=O)/C(=C4\C(=O)Nc5ccc(Br)cc54)S3)C(c3ccc(Cl)cc3)C2)cc1 (configuration not stated) | 130 | 16.1 | 7.44 | 0.19 | 14 | 100 | 140 | 19.2 | 0.4 | 160 | 0.34 | 0.99 | 140 | 4 | 0.37 | 120 | 0.34 | 12.4 | 190 | 29.8 | growth at 10 µM (SK-MEL-5): -56.4%; TGI [7]: 14.7 µM; GI50 [8]: 120 nM; LC50 (concentration giving 50% net cell kill) [8]: 15.7 µM; TGI [8]: 1.48 µM; GI50 [9]: 180 nM; LC50 [9]: 100 µM; TGI [9]: 1.01 µM
7 | O=C1N=C(N2N=C(c3ccccc3)CC2c2ccc(Cl)cc2)S/C1=C1/C(=O)Nc2ccccc21 (configuration not stated) | 190 | 0.81 | 0.39 | 0.37 | 70.8 | 100 | 320 | 39.4 | 0.91 | 280 | 0.54 | 1 | 270 | 22.1 | 0.85 | 230 | 6.29 | 30 | 230 | 26.7 | growth at 10 µM (SK-MEL-5): -56.9%; TGI [7]: 0.65 µM; GI50 [8]: 190 nM; LC50 (concentration giving 50% net cell kill) [8]: 2.07 µM; TGI [8]: 0.5 µM; GI50 [9]: 250 nM; TGI [9]: 0.85 µM
8 | CN(C)c1ccc(C2CC(c3ccccc3)=NN2C2=NC(=O)/C(=C3\C(=O)Nc4ccc(Cl)cc43)S2)cc1 (configuration not stated) | 190 | 16.5 | 0.41 | 0.34 | 3.11 | 100 | 220 | 2.32 | 0.53 | 260 | 0.57 | 2.16 | 190 | 15.3 | 0.43 | 210 | 0.51 | 37.9 | 240 | 48.8 | growth at 10 µM (SK-MEL-5): -52.9%; TGI [7]: 0.62 µM; GI50 [8]: 190 nM; LC50 (concentration giving 50% net cell kill) [8]: 1.63 µM; TGI [8]: 0.43 µM; GI50 [9]: 250 nM; LC50 [9]: 12.8 µM; TGI [9]: 0.69 µM
9 | CN(C)c1ccc(C2CC(c3ccccc3)=NN2C2=NC(=O)/C(=C3\C(=O)Nc4ccccc43)S2)cc1 (configuration not stated) | 2550 | 40.4 | 35.3 | 33.9 | 45.6 | 94.8 | 5260 | 57.3 | 20.2 | 6900 | 29.4 | 43.9 | 6370 | 43 | 18.8 | 7420 | 25.2 | 49 | 1220 | 47.1 | MTD [10]: > 400 mg/kg; Activity (Mus musculus): inactive; TGI [7]: 39.7 µM; GI50 [8]: 1110 nM; LC50 (concentration giving 50% net cell kill) [8]: 41.6 µM; TGI [8]: 3.24 µM; growth at 10 µM (U-251): -39.6%; GI50 [9]: 270 nM; LC50 [9]: 41.4 µM; TGI [9]: 34 µM
10 | O=C1N=C(N2N=C(c3ccc4ccccc4c3)CC2c2ccc(Cl)cc2)S/C1=C1/C(=O)Nc2ccccc21 (configuration not stated) | 530 | 83.8 | 70.3 | 19.1 | 71.6 | 93.1 | 740 | 91.7 | 38.3 | 350 | 24.7 | 83 | 400 | 75.5 | 42.1 | 460 | 20.9 | 100 | 15400 | 100 | MTD [10]: > 400 mg/kg; Activity (Mus musculus): inactive; TGI [7]: 56.1 µM; GI50 [8]: 8800 nM; LC50 (concentration giving 50% net cell kill) [8]: 75.9 µM; TGI [8]: 27.3 µM; growth at 10 µM (U-251): -25.1%; GI50 [9]: 400 nM; LC50 [9]: 100 µM; TGI [9]: 50.7 µM
